Measured values: article PMC12643509, “High-throughput screens identify genotype-specific therapeutics for channelopathies” (JCI Insight, 2025)
Where “and” joins values, the source holds several entries; their conditions need not be identical. Identical values can stand only once.

Tested on: C57BL/6J mice
Assay: Mouse ECG analysis (cardiac safety)
Type: in vivo
Design: QTc / QT: unit not given here
[1] = mouse ECG, individual animals (Figure S5)
[2] = mouse ECG, individual animals (Figure S5), in ms (unit assumed)

Cc1cc(C)c2c(c1)[C@@H](N(Cc1cc(C(F)(F)F)cc(C(F)(F)F)c1)c1nnn(C)n1)CCCN2C[C@H]1CC[C@H](C(=O)O)CC1 [Evacetrapib, evacetrapib]
ECG parameters, including the QT interval (mice, 40 mg/kg intraperitoneally, 30 minutes post-drug): No significant differences | P duration [1]: 13.6667 and 11.3333 and 10.6667 and 11.6667 and 9 and 13.3333 and 12.3333 | PR interval [1]: 56.3333 and 38.3333 and 42.3333 and 46.6667 and 44.6667 and 41.6667 | QT [1]: 31.3333 and 39.3333 and 34 and 35.3333 and 42.3333 | QTc [1]: 30.5782 and 35.4177 and 28.9078 and 33.1412 and 36.2561 and 31.0292 and 33.811 | QRS [2]: 12 and 11 and 10.6667 and 10.3333 | RR [2]: 105 and 123.333 and 138.333 and 113.667 and 136.333 and 129.667 and 135.333
